Common to all, as to type: cell-based
The target in test [1] is T1, pERK1/2 (Thr202/Tyr204), NCI-1H358 (KRAS G12C) (Homo sapiens, UniProt P01116, G12C).
T1 construct: pERK1/2 HTRF read-out
As to the kind of experiment: Assay of intracellular pERK1/2 (Thr202/Tyr204) phosphorylation in NCI-H358 cells (KRAS G12C). As to conditions: pERK1/2, 2 days, read-out: NCI-H358 (KRAS G12C) IC50. The method in brief:
(§1)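 Cells (10000-12000/well) exposed to 3-fold compound dilutions for 2 days at 37 °C, then lysed; pERK1/2 (Thr202/Tyr204) measured by HTRF with d2 and cryptate antibodies, 665/615 nm ratio.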

Test [2] deals with T2, pERK1/2 (Thr202/Tyr204), PANC-1 (KRAS G121D) (Homo sapiens, UniProt P01116, G12D).
T2 construct: pERK1/2 HTRF read-out
T2 sequence (P01116 1-188 isoform P01116-2 G12D): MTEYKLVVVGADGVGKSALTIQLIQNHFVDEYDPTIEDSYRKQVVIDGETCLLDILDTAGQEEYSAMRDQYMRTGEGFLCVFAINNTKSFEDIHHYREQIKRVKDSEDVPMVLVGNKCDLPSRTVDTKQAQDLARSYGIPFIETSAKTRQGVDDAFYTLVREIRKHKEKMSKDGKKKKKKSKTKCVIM
As to the kind of experiment: Assay of intracellular pERK1/2 (Thr202/Tyr204) phosphorylation in PANC-1 cells (KRAS G12D). As to conditions: pERK1/2, 2 days, read-out: PANC-1 (KRAS G12D) IC50. The method in brief:
as §1

Test [3] deals with T3, pERK1/2 (Thr202/Tyr204), NCI-1H441 (KRAS G12V) (Homo sapiens, UniProt P01116, G12V).
T3 construct: pERK1/2 HTRF read-out
T3 sequence (P01116 1-188 isoform P01116-2 G12V): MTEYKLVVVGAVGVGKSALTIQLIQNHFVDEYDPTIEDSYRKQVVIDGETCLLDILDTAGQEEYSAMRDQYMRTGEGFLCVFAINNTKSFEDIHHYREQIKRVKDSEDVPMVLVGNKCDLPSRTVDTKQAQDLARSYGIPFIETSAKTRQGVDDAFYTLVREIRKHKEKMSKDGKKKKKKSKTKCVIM
As to the kind of experiment: Assay of intracellular pERK1/2 (Thr202/Tyr204) phosphorylation in NCI-H441 cells (KRAS G12V). As to conditions: pERK1/2, 2 days, read-out: NCI-H441 (KRAS G12V) IC50. The method, boiled down: as §1

A value given as a limit tells only on which side of the number the result lay.

T1 sequence (P01116 1-188 isoform P01116-2 G12C): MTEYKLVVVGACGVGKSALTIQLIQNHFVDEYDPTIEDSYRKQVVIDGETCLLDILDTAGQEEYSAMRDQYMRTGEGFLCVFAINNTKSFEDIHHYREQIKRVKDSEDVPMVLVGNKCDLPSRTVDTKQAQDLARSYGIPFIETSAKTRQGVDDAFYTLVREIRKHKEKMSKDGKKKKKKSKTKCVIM

`Cc1cc(N)cc(-c2nc3c4c(nc(OC[C@@H]5CCCN5CCO)nc4c2F)N(C(C)c2cccnc2N)CCO3)c1C(F)(F)F` (stereo partly drawn) [Compound 108]: the results for the half-inhibitory concentration (IC50) in test [1], in test [2] and in test [3] were 12 nM, above 100 nM and 26 nM, respectively.

For `[2H]C([2H])([2H])N1CCC[C@H]1COc1nc2c3c(nc(-c4cc(N)cc(Cl)c4C(F)(F)F)c(F)c3n1)OCCN2C(C)c1cccnc1N` (stereo partly drawn) [Compound 111], the figures for the IC50 in test [1], in test [2] and in test [3] were 1 nM, 21 nM and 1 nM, respectively.

Turning to `[2H]C([2H])(Oc1nc2c3c(nc(-c4cc(N)cc(Cl)c4C(F)(F)F)c(F)c3n1)OCCN2C(C)c1cccnc1N)[C@@H]1CCC([2H])([2H])N1C([2H])([2H])[2H]` (stereo partly drawn) [Compound 112], the results for the IC50 in test [1], in test [2] and in test [3] were 1 nM, 34 nM and 2 nM, respectively.

For `[2H]C1([2H])CC[C@@]2(C([2H])([2H])Oc3nc4c5c(nc(-c6cc(N)cc(Cl)c6C(F)(F)F)c(F)c5n3)OCCN4C(C)c3cccnc3N)C[C@@H](F)CN12` (stereo partly drawn) [Compound 113], the IC50 – broadly, the concentration needed to halve the response being measured – in test [1] was determined as 0.7 nM; in test [2], 2 nM; in test [3], 0.8 nM.

In the case of `CCN1CCC[C@H]1COc1nc2c3c(nc(-c4cc(N)cc(C)c4C(F)(F)F)c(F)c3n1)OCCN2C(C)c1cccnc1N` (stereo partly drawn) [Compound 114], the values for the IC50 in test [1], in test [2] and in test [3] were 0.6 nM, 19 nM and 0.9 nM, respectively.

Consider `[2H]C1([2H])CC[C@@]2(C([2H])([2H])Oc3nc4c5c(nc(-c6cc(N)c(F)c(C)c6C(F)(F)F)c(F)c5n3)OCCN4C(C)c3cccnc3N)C[C@@H](F)CN12` (stereo partly drawn) [Compound 119], for which the IC50 in test [1] came out at 0.3 nM; in test [2], 2 nM; in test [3], 0.4 nM.

For `Cc1c(F)c(N)cc(-c2nc3c4c(nc(OC[C@@]56CCCN5C[C@H](F)C6)nc4c2F)N(C(C)c2cccnc2N)CCO3)c1C(F)(F)F` (stereo partly drawn) [Compound 120], the IC50 in test [1] worked out at 0.3 nM; in test [2], 1 nM; in test [3], 0.4 nM.

In the case of `Cc1cc(N)cc(-c2nc3c4c(nc(OC[C@@]56CCCN5C[C@H](F)C6)nc4c2F)N(C(C)c2cccnn2)CCO3)c1C(F)(F)F` (stereo partly drawn) [Compound 121], the values for the concentration for half-maximal inhibition (IC50) in test [1], in test [2] and in test [3] were above 100 nM, above 100 nM and 98 nM, respectively.

As to `[2H]C([2H])(Oc1nc2c3c(nc(-c4cc(N)cc(C)c4C(F)(F)F)c(F)c3n1)OCCN2C(C)c1cccnc1N)[C@@H]1C[C@@H](F)CN1C([2H])([2H])[2H]` (stereo partly drawn) [Compound 122], the IC50 in test [1] was 0.6 nM; in test [2] it was 11 nM; in test [3], 1 nM.

For the compound `Cc1cc(N)cc(-c2nc3c4c(nc(OC[C@@H]5CCCN5C5COC5)nc4c2F)N(C(C)c2cccnc2N)CCO3)c1C(F)(F)F` (stereo partly drawn) [Compound 123], the half-maximal inhibitory concentration (IC50) is 2 nM in test [1], above 100 nM in test [2] and 4 nM in test [3].

As for `[2H]C([2H])(Oc1nc2c3c(nc(-c4cc(N)ccc4C(F)(F)F)c(F)c3n1)OCCN2C(C)c1cccnc1N)[C@@H]1C[C@@H](F)CN1C([2H])([2H])[2H]` (stereo partly drawn) [Compound 126], the results for the IC50 in test [1], in test [2] and in test [3] were 7 nM, above 100 nM and 31 nM, respectively.

For the compound `[2H]C1([2H])CC[C@@]2(C([2H])([2H])Oc3nc4c5c(nc(-c6cc(N)ccc6C(F)(F)F)c(F)c5n3)OCCN4C(C)c3cccnc3N)C[C@@H](F)CN12` (stereo partly drawn) [Compound 129], the values for the IC50 in test [1], in test [2] and in test [3] were 0.9 nM, 26 nM and 2 nM, respectively.

Take `CC(c1cccnc1N)N1CCOc2nc(-c3cc(O)cc(Cl)c3C3CC3)c(F)c3nc(OC[C@@H]4COCCN4C)nc1c23` (stereo partly drawn) [Compound 134]: the IC50 in test [1] is 31 nM; in test [2] it was above 100 nM; in test [3] it was 34 nM.

On to `CC(c1cccnc1N)N1CCOc2nc(-c3cc(N)c(F)cc3C(F)(F)F)c(F)c3nc(OC[C@@]45CCCN4C[C@H](F)C5)nc1c23` (stereo partly drawn) [Compound 135], for which the half-inhibitory concentration (IC50) in test [1] came to 2 nM; in test [2], 30 nM; in test [3], 3 nM.

As to `[2H]C([2H])(Oc1nc2c3c(nc(-c4cc(N)c(F)cc4C(F)(F)F)c(F)c3n1)OCCN2C(C)c1cccnc1N)[C@@H]1C[C@@H](F)CN1C([2H])([2H])[2H]` (stereo partly drawn) [Compound 136], the IC50 in test [1] is 17 nM; in test [2] it was above 100 nM; in test [3] it was 61 nM.

In the case of `CC(c1cccnc1N)N1CCOc2nc(-c3cc(O)cc(Cl)c3C3CC3)c(F)c3nc(OC[C@@H]4CCCCN4C)nc1c23` (stereo partly drawn) [Compound 139], the IC50 was 91 nM in test [1], above 100 nM in test [2] and above 100 nM in test [3].

For `[2H]C1([2H])CN(C(C)c2cccnc2N)c2nc(OC[C@@]34CCCN3C[C@H](F)C4)nc3c(F)c(-c4cc(N)cc(C)c4C(F)(F)F)nc(c23)O1` (stereo partly drawn) [Compound 140], the IC50 in test [1] came out at 0.3 nM; in test [2], 1 nM; in test [3], 0.9 nM.

Regarding `[2H]C1([2H])CN(C([2H])(C)c2cccnc2N)c2nc(OC[C@@]34CCCN3C[C@H](F)C4)nc3c(F)c(-c4cc(N)cc(C)c4C(F)(F)F)nc(c23)O1` (stereo partly drawn) [Compound 141], the IC50 is 0.3 nM in test [1], above 100 nM in test [2] and 0.7 nM in test [3].

In the case of `Cc1cc(N)cc(-c2nc3c4c(nc(OC[C@@]56CCCN5C[C@H](F)C6)nc4c2F)N(C(C)c2cccnc2N)CCO3)c1C1CC1` (stereo partly drawn) [Compound 146], the IC50 in test [1] amounted to 0.8 nM; in test [2] it was 16 nM; in test [3] it was 3 nM.

As for `[2H]C1([2H])CC[C@@]2(COc3nc4c5c(nc(-c6cc(N)c(F)c(C)c6C(F)(F)F)c(F)c5n3)OCCN4C(C)c3cccnc3N)C[C@@]([2H])(F)CN12` (stereo partly drawn) [Compound 148], the half-inhibitory concentration (IC50) was 0.2 nM in test [1], 1 nM in test [2] and 0.3 nM in test [3].

As for `[2H]C([2H])(Oc1nc2c3c(nc(-c4cc(N)c(F)c(C)c4C(F)(F)F)c(F)c3n1)OCCN2C(C)c1cccnc1N)[C@@H]1C[C@@H](F)CN1C([2H])([2H])[2H]` (stereo partly drawn) [Compound 149], the IC50 was found to be 0.3 nM in test [1], 7 nM in test [2] and 0.9 nM in test [3].

For the compound `[2H]C1([2H])CC[C@@]2(COc3nc4c5c(nc(-c6cc(N)c(F)c(C)c6C(F)(F)F)c(F)c5n3)OCCN4C(C)c3cccnc3N)C[C@@H](F)CN12` (stereo partly drawn) [Compound 150], the values for the concentration for half-maximal inhibition (IC50) in test [1], in test [2] and in test [3] were 0.2 nM, 1 nM and 0.3 nM, respectively.

Regarding `[2H]C1([2H])CN(C(C)c2cccnc2N)c2nc(OC[C@@]34CCCN3C[C@H](F)C4)nc3c(F)c(-c4cc(N)c(F)c(C)c4C(F)(F)F)nc(c23)O1` (stereo partly drawn) [Compound 157], the half-inhibitory concentration (IC50) was 0.3 nM in test [1], 2 nM in test [2] and 0.5 nM in test [3].

As for `CC(c1cccnc1N)N1CCOc2nc(-c3cc(N)c(F)c(F)c3F)c(F)c3nc(OC[C@@]45CCCN4C[C@H](F)C5)nc1c23` (stereo partly drawn) [Compound 158], the half-maximal inhibitory concentration (IC50) in test [1] is 96 nM; in test [2], above 100 nM; in test [3], above 100 nM.

On to `Cc1cc(O)cc(-c2nc3c4c(nc(OC[C@@]56CCCN5C[C@H](F)C6)nc4c2F)N(C(C)c2cccnc2N)CCO3)c1C1CC1` (stereo partly drawn) [Compound 159], for which the IC50 in test [1] turned out to be 0.6 nM; in test [2], 15 nM; in test [3], 1 nM.

Consider `Cc1cc(Nc2nc3c4c(nc(OC[C@@]56CCCN5C[C@H](F)C6)nc4c2F)N(C(C)c2cccnc2N)CCO3)c(F)cc1C(F)(F)F` (stereo partly drawn) [Compound 162], for which the IC50 in test [1], in test [2] and in test [3] was above 100 nM throughout.
